Values of other authors, collected in US6344444B1 (Nutrition 21, priority 1997, dated 2002).

Key:
[1] = test system: cholesterol-induced intimal hyperplasia; details: rabbits, injection or ingestion
femoral density = details: postmenopausal women, injection 50 mg twice weekly, over 14 months
bone turnover = details: ovariectomized rats, oral

Row | Molecule | intimal thickening and fragmentation of arterial elastic fibers [1] | increase of femoral density (average) (femoral density) | bone formation rate (bone turnover) | bone turnover (bone turnover)
1 | C[Si](O)(O)O [monomethyltrisilanol] | prevented | 4.7% | – | –
2 | NCCCC[C@H](N)C(=O)O.O[Si](O)(O)O [lysine silicate] | prevented | – | – | –
3 | orthosilicic acid | – | – | increased | slowed
